Measurements: patent publication US8133849B2, “Herbicidal compounds” (Syngenta Limited, priority 2007, dated 2012)

How the values were obtained:
Type in all cases: in vivo
Amaranthus retroflexus [1] = assay: Example B1 herbicidal action, post-emergence, seed trays in climatic chamber, damage score 0-10; conditions: 1000 g/ha, evaluated after 9 days, 10=total damage to plant, 0=no damage to plant
Description: (§1) Seeds of a variety of test species were sown in sterilized standard soil in seed trays each having 96 cells. After cultivation for 8 to 9 days cultivation (post-emergence) under controlled conditions in a climatic chamber (cultivation at 23/17° C., day/night; 13 hours light; 50-60% humidity), the plants were treated with an aqueous spray solution of 1000 mg/l of the active ingredient dissolved in 10% DMSO (dimethyl sulfoxide, CAS RN 67-68-5) as a solvent, equivalent to 1000 g/ha. The plants were grown in the climatic chamber after application at (24/19° C., day/night; 13 hours light; 50-60% humidity) and watered twice daily. After 9 days until the test was evaluated (10=total damage to plant, 0=no damage to plant)

Nasturtium officinale = assay: as above; conditions: 1000 g/ha, evaluated after 9 days, 10=total damage to plant, 0=no damage to plant
Description: as §1

Solanum nigrum [2] = assay: as above; conditions: 1000 g/ha, evaluated after 9 days, 10=total damage to plant, 0=no damage to plant
Description: as §1

Stellaria media = assay: as above; conditions: 1000 g/ha, evaluated after 9 days, 10=total damage to plant, 0=no damage to plant
Description: as §1

Amaranthus retroflexus [3] = assay: Example B2 herbicidal action, post-emergence, pots in glasshouse, damage score 0-10; conditions: application post-emergence, rate 1000 g/ha, evaluated after 13 days
Method in brief: (§2)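 Seedlings grown 8 days in a controlled glasshouse received a foliar spray of the compound formulated in 50:50 acetone/water plus 0.5% Tween 20; plant damage was assessed 13 days afterward.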

Echinochloa crus-galli = assay: as above; conditions: application post-emergence, rate 1000 g/ha, evaluated after 13 days
Method in brief: as §2

Ipomea hederaceae = assay: as above; conditions: application post-emergence, rate 1000 g/ha, evaluated after 13 days
Method in brief: as §2

Setaria faberi = assay: as above; conditions: application post-emergence, rate 1000 g/ha, evaluated after 13 days
Method in brief: as §2

Solanum nigrum [4] = assay: as above; conditions: application post-emergence, rate 1000 g/ha, evaluated after 13 days
Method in brief: as §2

| SMILES | damage to plant, AMARE (Amaranthus retroflexus [1]) | damage to plant, NAAOF (Nasturtium officinale) | damage to plant, SOLNI (Solanum nigrum [2]) | damage to plant, STEME (Stellaria media) | AMARE damage score (10=total damage to plant; 0=no damage to plant) (Amaranthus retroflexus [3]) | ECHCG damage score (10=total damage to plant; 0=no damage to plant) (Echinochloa crus-galli) | IPOHE damage score (10=total damage to plant; 0=no damage to plant) (Ipomea hederaceae) | SETFA damage score (10=total damage to plant; 0=no damage to plant) (Setaria faberi) | SOLNI damage score (10=total damage to plant; 0=no damage to plant) (Solanum nigrum [4]) |
| --- | --- | --- | --- | --- | --- | --- | --- | --- | --- |
| COC1=C(c2cc3ccccc3nc2Cl)S(=O)(=O)N(C)c2nccnc21 [Compound C40] | 0 | 0 | 0 | 1 | – | – | – | – | – |
| CCN1c2nccnc2C(OC(=O)C(C)C)=C(c2ccc(Cl)cc2Cl)S1(=O)=O [Compound C6] | 0 | 8 | 7 | 8 | – | – | – | – | – |
| O=[N+]([O-])c1ccccc1C1=C(O)c2nccnc2N(CC(F)F)S1(=O)=O [Compound D32] | – | – | – | – | 5 | 0 | 5 | 1 | 6 |
| O=S1(=O)C(c2ccc(C(F)(F)F)cc2C(F)(F)F)=C(O)c2nccnc2N1CC(F)F [Compound D55] | – | – | – | – | 10 | 5 | 10 | 4 | 10 |
| CC(C)C(=O)OC1=C(c2cc(Cl)cc(C(F)(F)F)c2)S(=O)(=O)N(CC(F)F)c2nccnc21 [Compound C149] | – | – | – | – | 10 | 0 | 0 | 0 | 8 |
| CCN1c2nccnc2C(O)=C(c2c(Cl)ccc(Cl)c2C(F)(F)F)S1(=O)=O [Compound D26] | – | – | – | – | 8 | 7 | 8 | 4 | 8 |
| O=S1(=O)C(c2cc(C(F)(F)F)ccc2Cl)=C(O)c2nccnc2N1CC(F)F [Compound D16, 3-(2-chloro-5-trifluoromethyl-phenyl)-1-(2,2-difluoro-ethyl)-2,2-dioxo-1,2-dihydro-2-λ-6-thia-1,5,8-triaza-naphthalen-4-ol] | – | – | – | – | 10 | 5 | 9 | 2 | 10 |
| CCN1c2nccnc2C(OC(=O)C(C)C)=C(c2cc(C(F)(F)F)ccc2Br)S1(=O)=O [Compound C70] | – | – | – | – | 7 | 7 | 10 | 1 | 8 |
| CC(C)(C)C(=O)OC1=C(c2cc(I)ccc2Cl)S(=O)(=O)N(CC(F)F)c2nccnc21 [Compound C55] | – | – | – | – | 7 | 2 | 8 | 2 | 7 |
| C#CCN1c2nccnc2C(OC(=O)C(C)C)=C(c2c(Cl)ccc(Cl)c2C(F)(F)F)S1(=O)=O [Compound C84] | – | – | – | – | 9 | 7 | 8 | 7 | 10 |
| CC(C)(C)C(=O)OC1=C(c2cccc(C(F)(F)F)c2Cl)S(=O)(=O)N(CC(F)F)c2nccnc21 [Compound C74] | – | – | – | – | 7 | 4 | 7 | 3 | 6 |
| O=S1(=O)C(c2cc(Cl)cc(C(F)(F)F)c2)=C(O)c2nccnc2N1CC(F)F [Compound D19] | – | – | – | – | 0 | 0 | 0 | 0 | 2 |
| CCN1c2nccnc2C(OC(=O)C(C)(C)C)=C(c2cc(C(F)(F)F)ccc2Br)S1(=O)=O [Compound C69] | – | – | – | – | 4 | 2 | 7 | 0 | 6 |
| CC(C)C(=O)OC1=C(c2ccc(Br)cc2C(F)(F)F)S(=O)(=O)N(CC(F)F)c2nccnc21 [Compound C132] | – | – | – | – | 10 | 6 | 10 | 7 | 10 |
| CCN1c2nccnc2C(O)=C(c2ccccc2SC(F)(F)F)S1(=O)=O [Compound D7] | – | – | – | – | 9 | 0 | 3 | 0 | 5 |
| CCN1c2nccnc2C(OC(=O)C(C)(C)C)=C(c2c(Cl)cccc2C(F)(F)F)S1(=O)=O [Compound C17] | – | – | – | – | 8 | 5 | 7 | 4 | 9 |
| O=S1(=O)C(c2c(C(F)(F)F)ccc(Cl)c2Cl)=C(O)c2nccnc2N1CC(F)F [Compound D57] | – | – | – | – | 10 | 9 | 7 | 10 | 10 |
| CCc1cc(C)cc(CC)c1C1=C(OC(=O)C(C)C)c2nccnc2N(CC(F)F)S1(=O)=O [Compound C48] | – | – | – | – | 3 | 0 | 6 | 0 | 5 |
| CCN1c2nccnc2C(OC(=O)C(C)C)=C(c2ccccc2[N+](=O)[O-])S1(=O)=O [Compound C67] | – | – | – | – | 0 | 0 | 2 | 0 | 1 |
| CCSC(=O)OC1=C(c2cc(F)c(Cl)cc2Cl)S(=O)(=O)N(CC(F)F)c2nccnc21 [Compound C88] | – | – | – | – | 9 | 6 | 9 | 4 | 9 |
| CCN1c2nccnc2C(O)=C(c2c(F)ccc(Cl)c2Cl)S1(=O)=O [Compound D4] | – | – | – | – | 8 | 4 | 10 | 2 | 10 |
| C#CCN1c2nccnc2C(OC(=O)C(C)(C)C)=C(c2c(Cl)ccc(Cl)c2C(F)(F)F)S1(=O)=O [Compound C86] | – | – | – | – | 5 | 5 | 4 | 2 | 6 |
| O=S1(=O)C(c2ccccc2C(F)(F)F)=C(O)c2nccnc2N1CC(F)F [Compound D31] | – | – | – | – | 10 | 9 | 10 | 9 | 10 |
| COc1ccc(Cl)c(C2=C(O)c3nccnc3N(CC(F)F)S2(=O)=O)c1F [Compound D60] | – | – | – | – | 1 | 4 | 8 | 2 | 7 |
| CN1c2nccnc2C(O)=C(c2c(Cl)ccc(Cl)c2Cl)S1(=O)=O [Compound D47] | – | – | – | – | 8 | 4 | 8 | 1 | 10 |
